10 molecules from patent publication US9593305B2, “Differentiation of pluripotent stem cells” (Janssen Biotech, Inc., priority 2008, dated 2017) can be followed below.

The test system of this experiment is H1 human embryonic stem cells. Briefly: Primary screening: definitive endoderm differentiation in the absence of activin A, cell number and SOX17 (Example 3). It counts as cell-based. As to conditions: for Cell Number, % of positive control / Sox17 Intensity % of positive control: Table 2 hit subset of primary screening, no activin A; for Cell Number, % of positive control / Sox17 Intensity % of positive control / SOX17 expression in the absence of activin A: 2.5 μM; for Cell Number: % of positive control / Sox17 Expression: % of positive control / Sox17 Expression: Average Total Intensity / Cell Number: Average Total Cell Number: 2.5 μM compound, 20 ng/ml Wnt3a days 1-2, no activin A, four-day assay; for Cell Number: Average Total Cell Number: positive control 100 ng/ml activin A + Wnt3a; for SOX17 expression in the absence of activin A: primary screening. The procedure:
Briefly, clusters of H1 human embryonic stem cells were grown on reduced growth factor […]™ (Invitrogen; Cat #1356231)-coated tissue culture plastic. Cells were passaged using collagenase (Invitrogen; Cat #17104-019) treatment and gentle scraping, washed to remove residual enzyme, and plated with even dispersal at a ratio of 1:1 (surface area) on reduced growth factor […]™-coated 96-well black plates (Packard ViewPlates; PerkinElmer; Cat #6005182) using volumes of 100 μl/well. Cells were allowed to attach as clusters and then recover log phase growth over a 1 to 3 day period, feeding daily with MEF conditioned medium supplemented with 8 ng/ml bFGF (R&D Systems; Cat #233-FB). Plates were maintained at 37° C., 5% CO2 in a humidified box throughout the duration of assay.
The compounds tested were made available as 5 mM stocks in 96-well plate format, solubilized in 100% DMSO (Sigma; Cat #D2650) and stored at −80° C. The library compounds were further diluted to an intermediate concentration of 0.2 mM in 50 mM HEPES (Invitrogen; Cat #15630-080), 20% DMSO and stored at 4° C. Test conditions were performed in triplicate, feeding on alternate days over a four-day assay period. Primary screening assays were initiated by aspirating culture medium from each well followed by three washes in PBS (Invitrogen; Cat #14190) to remove residual growth factors and serum. On the first day of assay, test volumes of 200 μl per well were added back containing DMEM:F12 base medium (Invitrogen; Cat #11330-032) supplemented with 0.5% FCS (HyClone; Cat #SH30070.03) and 20 ng/ml Wnt3a (R&D Systems; Cat #1324-WN) plus 2.5 μM test compound. On the third day of assay, test volumes of 200 μl per well were added back containing DMEM:F12 base medium supplemented with 2% FCS plus 2.5 μM test compound, without Wnt3a. Positive control samples contained the same base medium supplemented with FCS, substituting 100 ng/ml recombinant human activin A (PeproTech; Cat #120-14) for the test compound throughout the four-day assay along with Wnt3a (20 ng/ml) added only on days 1 and 2. Negative control samples contained DMEM:F12 base medium supplemented with FCS, adding Wnt3a on days 1 and 2 but omitting activin A.
At the conclusion of four-days of culture, assay plates were washed twice with PBS (Invitrogen; Cat #14190), fixed with 4% paraformaldehyde (Alexis Biochemical; Cat #ALX-350-011) at room temperature for 20 minutes, then washed three times with PBS and permeabilized with 0.5% Triton X-100 (Sigma; Cat #T8760-2) for 20 minutes at room temperature. Cells were washed again three times with PBS and blocked with 4% chicken serum (Invitrogen; Cat #16110082) in PBS for 30 minutes at room temperature. Primary antibody (goat anti-human SOX17; R&D Systems; Cat #AF1924) was diluted 1:100 in 4% chicken serum and added to each well for one hour at room temperature. Alexa Fluor 488 conjugated secondary antibody (chicken anti-goat IgG; Molecular Probes; Cat #AZ1467) was diluted 1:200 in PBS and added to each sample well after washing three times with PBS. To counter stain nuclei, 4 μg/ml Hoechst 33342 (Invitrogen; Cat #H3570) was added for ten minutes at room temperature. Plates were washed once with PBS and left in 100 μl/well PBS for imaging.
Imaging was performed using an IN Cell Analyzer 1000 (GE Healthcare) utilizing the 51008bs dichroic for cells stained with Hoechst 33342 and Alexa Fluor 488. Exposure times were optimized from positive control wells and from untreated negative control wells stained with secondary antibody alone. Images from 15 fields per well were acquired to compensate for any cell loss during the bioassay and subsequent staining procedures. Measurements for total cell number and total SOX17 intensity were obtained from each well using IN Cell Developer Toolbox 1.7 (GE Healthcare) software. Segmentation for the nuclei was determined based on gray-scale levels (baseline range 100-300) and nuclear size. […]

Take `O=C1NCCCc2cncc(c2)-c2ncnc(n2)Nc2cccc(c2)CN2CCCC1C2` (stereo not shown) [Compound 17, 3,5,7,14,20,26,31-Heptaazapentacyclo[22.3.1.1-2,6˜1˜8,12˜1˜14,18˜]hentriaconta-1(28), 2(31), 3,5,8(30), 9,11,24,26-nonaen-19-one]: the “Cell Number, % of positive control” value is 133.8 % of positive control and the “Sox17 Intensity % of positive control” value is recorded as −0.7 % of positive control.
As to `CN1CCC(=O)NCCCNc2cccc(c2)-c2ncnc(n2)Nc2cccc(c2)C1` [Compound 21, 14-Methyl-3,5,7,14,18,22,29-heptaazatetracyclo[21.3.1.1˜2,6˜0.1˜8,12˜]nonacosa-1(27), 2(29), 3,5,8(28), 9,11,23,25-nonaen-17-one], the “Cell Number: % of positive control” value is 44.44 % of positive control, the “Sox17 Expression: % of positive control” value is −0.61 % of positive control, the “Sox17 Expression: Average Total Intensity” value was −1.96E+06 and the “Cell Number: Average Total Cell Number” value was 4719.
On to `O=C1NCCCc2cncc(c2)-c2ncnc(n2)Nc2cccc(c2)CN2CCC1CC2` [Compound 22, 1,8,10,12,16,22,30-Heptaazapentacyclo[22.2.2.1-3,7˜0.1˜9,13˜1-14,18˜]hentriaconta-3(31), 4,6,9(30), 10,12,14(29), 15,17-nonaen-23-one], for which the “Cell Number, % of positive control” value was 132.7 % of positive control; the “Sox17 Intensity % of positive control” value is given as 72.4 % of positive control; the “SOX17 expression in the absence of activin A” value is given as “SOX17 expression was induced”.
For `O=C1CCN2CCN(CC2)Cc2cccc(c2)Nc2ncnc(n2)-c2cncc(c2)CCCN1` [Compound 23, 1,8,10,12,16,22,26,32-Octaazapentacyclo[24.2.2.1-3,7˜0.1˜9,13˜0.1˜14,18˜]tritriaconta-3(33), 4,6,9(32), 10,12,14(31), 15,17-nonaen-23-one], the “Cell Number: % of positive control” value was 24.13 % of positive control, the “Sox17 Expression: % of positive control” value is −0.48 % of positive control, the “Sox17 Expression: Average Total Intensity” value is on record as −1.56E+06 and the “Cell Number: Average Total Cell Number” value worked out at 2563.
Regarding `CCN1CC(=O)NCCCc2cc(ccc2F)-c2ncnc(n2)Nc2cc(Cl)cc(c2)C1` [Compound 25, 10-Chloro-14-ethyl-22-fluoro-3,5,7,14,17,27-hexaazatetracyclo[19.3.1.1˜2,6˜0.1˜8,12˜]heptacosa-1(25), 2(27), 3,5,8(26), 9,11,21,23-nonaen-16-one], the “Cell Number: % of positive control” value is 146.17 % of positive control, the “Sox17 Expression: % of positive control” value was 20.32 % of positive control, the “Sox17 Expression: Average Total Intensity” value is recorded as 4.03E+07 and the “Cell Number: Average Total Cell Number” value was 4151.
`CCN1CCCc2cccc(c2)-c2ncnc(n2)Nc2cccc(c2)CCNC(=O)C1` [Compound 29, 18-Ethyl-3,5,7,15,18,28-hexaazatetracyclo[20.3.1.1˜2,6˜0.1˜8,12˜]octacosa-1(26), 2(28), 3,5,8(27), 9,11,22,24-nonaen-16-one]: the “Cell Number, % of positive control” value is 136.0 % of positive control and the “Sox17 Intensity % of positive control” value is reported as 34.5 % of positive control.
The like results for `O=C1CCN2CCN(CC2)Cc2cc(Cl)cc(c2)Nc2ncnc(n2)-c2cncc(c2)CCCN1` [Compound 34, 5-Chloro-1,8,10,12,16,22,26,32-octaazapentacyclo[24.2.2.1˜3.7˜0.1˜9,13˜0.1˜14.18˜]tritriaconta-3(33), 4,6,9(32), 10,12,14(31), 15,17-nonaen-23-one] were, in that order, 114.8 % of positive control and 44.5 % of positive control.
Regarding `CCN1CC(=O)NCCCc2cncc(c2)-c2ncnc(n2)Nc2cc(Cl)cc(c2)C1` [Compound 35, 10-Chloro-14-ethyl-3,5,7,14,17,23,27-heptaazatetracyclo[19.3.1.1˜2,6˜0.1˜8,12]Theptacosa-1(25), 2(27), 3,5,8(26), 9,11,21,23-nonaen-16-one], the “Cell Number, % of positive control” value is 158.7 % of positive control; the “Sox17 Intensity % of positive control” value is given as 86.8 % of positive control; the “SOX17 expression in the absence of activin A” value is listed as “SOX17 expression was induced”.
For the molecule `O=C1NCCCc2cncc(c2)-c2ncnc(n2)Nc2cc(Cl)cc(c2)CN2CCCC1C2` (stereo not shown) [Compound 37, 10-Chloro-3,5,7,14,20,26,31-heptaazapentacyclo[22.3.1.1˜2,6˜0.1˜8,12˜0.1˜14,18˜]hentriaconta-1(28), 2(31), 3,5,8(30), 9,11,24,26-nonaen-19-one], the “Cell Number, % of positive control” value was 129.3 % of positive control and the “Sox17 Intensity % of positive control” value was 29.1 % of positive control.
The like results for `CN1CCC(=O)NCCCNc2ncccc2-c2ncnc(n2)Nc2cccc(c2)C1` [Compound 39, 9-Methyl-2,3,4,5,7,8,9,10-octahydro-16H-17,21-(azeno)-11,15-(metheno)pyrido[3,2-g][1,3,5,9,13,17]hexaazacyclotricosin-6(1H)-one] were, in that order, 147.0 % of positive control and 35.2 % of positive control.
